Consider 1 compound from PMC3562592 (Journal of the American Chemical Society, 2012).

The target in the test is T1, FAAH (Rattus norvegicus, UniProt P97612).
T1 sequence (P97612 1-579): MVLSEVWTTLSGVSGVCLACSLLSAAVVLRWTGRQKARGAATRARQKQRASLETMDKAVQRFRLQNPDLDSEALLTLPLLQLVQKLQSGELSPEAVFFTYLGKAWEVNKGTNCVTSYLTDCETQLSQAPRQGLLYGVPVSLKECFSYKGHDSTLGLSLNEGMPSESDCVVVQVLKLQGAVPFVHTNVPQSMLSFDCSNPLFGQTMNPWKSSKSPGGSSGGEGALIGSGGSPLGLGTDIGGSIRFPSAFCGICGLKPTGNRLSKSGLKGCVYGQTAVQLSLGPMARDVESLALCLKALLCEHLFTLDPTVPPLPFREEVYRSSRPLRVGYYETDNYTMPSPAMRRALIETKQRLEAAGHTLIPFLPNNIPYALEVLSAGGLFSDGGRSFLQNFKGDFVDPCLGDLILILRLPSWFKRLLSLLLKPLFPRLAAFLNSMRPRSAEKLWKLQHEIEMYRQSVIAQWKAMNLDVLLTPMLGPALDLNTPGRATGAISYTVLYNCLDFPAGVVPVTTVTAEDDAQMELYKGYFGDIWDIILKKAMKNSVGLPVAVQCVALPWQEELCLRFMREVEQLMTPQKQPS
The test can be described thus: WaterLOGSY NMR binding to FAAH.

Regarding `CC(C(=O)O)c1ccc2c(c1)[nH]c1ccc(Cl)cc12` (racemic) [carprofen, (RS)-2-(6-chloro-9H-carbazol-2-yl)propanoic acid], the “binding to FAAH (WaterLOGSY signals)” value is given as “did not alter such binding” (enzyme pre-incubated with URB597) and “able to bind FAAH” (without URB597).
